# In article PMC6332220, “Synthesis, Characterization and Biological Evaluation of Some Quinoxaline Derivatives: A Promising and Potent New Class of Antitumor and Antimicrobial Agents” (Molecules, 2015):
# What was measured:
# [1] = tested on: WI 38 (normal fibroblast cells); test: In vitro cytotoxicity, SRB cell growth assay, normal cells WI 38; type: cell-based, human; details: 48 h exposure, non-cytotoxic = IC50 >100 μg/mL; for IC50: Homo sapiens, WI-38, 48 h
# Procedure: (§1) The in vitro cytotoxic activity of the newly synthesized compounds against human breast cell line (MCF7), non-small cell lung cancer NCIH460, CNS cancer SF-268 and WI 38 (normal fibroblast cells) were evaluated using doxorubicin as the reference drug according to the method reported by Skehan et al..
# (§2) The newly synthesized compounds were evaluated in vitro against three human cancer cell lines; which are MCF-7 (breast adenocarcinoma), NCI-H460 (non-small cell lung cancer) and SF-268 (CNS cancer), and WI 38 (normal fibroblast cells) were used in this study. MCF-7 was obtained from the European Collection of Cell Cultures (ECACC, Salisbury, UK) but NCI-H460, SF-268 and WI 38 were kindly provided by the National Cancer Institute (NCI, Cairo, Egypt). They grow as monolayer and routinely maintained RPMI-1640 medium supplemented with 5% heat inactivated fetal bovine serum (FBS), 2 mM glutamine and antibiotics (penicillin 100 U/mL, streptomycin 100 µg/mL), at 37 °C in a humidified atmosphere containing 5% CO2. Exponentially growing cells were obtained by plating 1.5 × 10^5 cells/mL for MCF-7 and SF-268, and 0.75 × 10^4 cells/mL for NCI-H460 followed by 24 h of incubation. The effect of the vehicle solvent (DMSO) on the growth of these cell lines was evaluated in all experiments by exposing untreated control cells to the maximum concentration (0.5%) of DMSO used in each assay.
# (§3) The effect of compounds on the in vitro growth of human tumor cell lines were evaluated according to the procedure adopted by the National Cancer Institute ([…]) in the “In vitro Anticancer Drug Discovery Screen” that uses the protein-binding dye sulforhodamine B (SRB) to assess cell growth. In the assay protocol, all cells were incubated at 37 °C under humidified atmosphere containing 5% CO2. Briefly, exponentially cells growing in 96-well plates were then exposed for 48 h to five serial concentrations of each compound, starting from a maximum concentration of 150 μg/mL. Following this exposure period adherent cells were fixed, washed and stained. The bound stain was solubilized and the absorbance was measured at 492 nm in a plate reader (Bio-Tek Instruments Inc., Power wave XS, Winston, NC, USA). For each test compound and cell line, a dose response curve was obtained and the inhibitory concentration of 50% (IC50), corresponding to the concentration of the compounds that inhibited 50% of the net cell growth was calculated as described elsewhere. Doxorubicin was used as a positive control and tested in the same manner.
# Candida albicans = test: Disk diffusion, Candida albicans; type: cell-based; details: Fungi, 8.0 mm disks, 10 μL
# Procedure: (§4) The disk diffusion method was used for determination of the antimicrobial activity using ampicillin, gentamicin and amphotericin B as reference drugs. The results were recorded for each compounds as the average diameter as inhibition zones (IZ) of bacterial or fungal growth around the discs in mm as shown in Table 2.
# (§5) Antimicrobial activities were carried out against highly pathogenic strains; three strains of Gram positive bacteria (Bacillus subtilis, Staphylococcus aureus and Streptococcus faecalis), four strains of Gram negative bacteria (Escherichia coli, Neisseria gonorrhoeae, Pseudomonas aeruginosa and Salmonella typhimurium) and three fungi strains (Aspergillus flavus, Aspergillus fumigatus and Candida albicans) isolated from primary agar plates. Antimicrobial activity of the tested samples was determined using a modified Kriby-Bauer disk diffusion method. Briefly, 100 µL of the test bacteria/fungi were grown in 10 mL of fresh media until they reached a count approximately 10^8 cells/mL for bacteria or 10^5 cells/mL for fungi. 100 µL of microbial suspension was spread onto agar plates corresponding to the broth in which they were maintained. The inoculated plates of bacterial strains were incubated at 35–37 °C for 24–48 h, while the inoculated plates of fungal strains such as A. flavus and A. fumigatus were incubated at 25 °C for 48 h and yeast as C. albicans was incubated at 30 °C for 24–48 h.
# (§6) The agar disk diffusion (qualitative) method was used in this investigation for determination of the preliminary antibacterial and antifungal activities. The agar used was Mueller-Hinton agar plates that are rigorously tested for composition and pH. Further the depth of the agar in the plate is a factor to be considered in the disk diffusion method.
# (§7) Reference drugs: ampicillin was used as a standard antibacterial drug for Gram positive bacteria, gentamicin as a standard antibacterial drug for Gram negative bacteria and amphotericin B as antifungal standard drug.
# (§8) Bacterial and fungal strains were spread onto the surface of the agar plates using sterile cotton swabs. For evaluation of antibacterial activities, blank paper disks (Schleicher & Schuell, Alicante, Spain) with a diameter of 8.0 mm were saturated with 10 μL of tested concentration of the stock solutions. Disks were dried and then placed onto inoculated agar plates. The plates of bacterial strains were reincubated at 35–37 °C for 24–48 h, while the plates of fungal strains such as A. flavus and A. fumigatus were reincubated at 25 °C for 48 h and yeast as C. albicans was reincubated at 30 °C for 24–48 h as mentioned above. […] For an accurate analysis, tests were run in triplicate for each strain to avoid any error as described in Table 2.
# Disk diffusion method for filamentous fungi testing by using approved standard method (M02-A11) developed by the CLSI for evaluating the susceptibilities of filamentous fungi to antifungal agents. Disk diffusion method for yeasts developed by using approved standard method (M44-A2) by the CLSI [44]. Agar-based methods such as disk diffusion can be good alternatives because they are simpler and faster than broth-based methods.
# SF-268 (CNS cancer) = test: In vitro cytotoxicity, SRB cell growth assay, SF-268; details: Homo sapiens, SF-268, 48 h, read-out: IC50 (μg/mL) SF-268
# Procedure: as §1, §2, §3
# Escherichia coli = test: Disk diffusion, Escherichia coli; type: cell-based; details: Gram negative, 8.0 mm disks, 10 μL
# Procedure: as §4, §5, §6, §7, §8
# [2] = tested on: MCF-7 (breast adenocarcinoma); test: In vitro cytotoxicity, SRB cell growth assay, MCF-7; details: Homo sapiens, MCF7, 48 h, read-out: IC50 (μg/mL) MCF-7
# Procedure: as §1, §2, §3
# Staphylococcus aureus = test: Disk diffusion, Staphylococcus aureus; type: cell-based; details: Gram positive, 8.0 mm disks, 10 μL
# Procedure: as §4, §5, §6, §7, §8
# Streptococcus faecalis = test: Disk diffusion, Streptococcus faecalis; type: cell-based; details: Gram positive, 8.0 mm disks, 10 μL
# Procedure: as §4, §5, §6, §7, §8
# Salmonella typhimurium = test: MIC by broth dilution, Salmonella typhimurium; type: cell-based; details: Salmonella enterica, TYPHIMURIUM, Gram negative, 0.98-125 µg/mL, read-out: Minimum Inhibitory Concentration (MIC) (µg/mL) Salmonella typhimurium
# Procedure: In this study, MIC (quantitative method) was used for evaluation of the antimicrobial activity of tested compounds. Screening was evaluated in vitro using the Broth dilution method according to CLSI [45]. All the bacteria were incubated and activated at 30 °C for 24 h inoculation into nutrient broth and the fungi were incubated in malt extract broth for 48 h. The compounds were dissolved in DMSO and then diluted using […] Mueller-Hinton broth. […] In each case triplicate tests were performed and the average was taken as the final reading. The tubes were then inoculated with the test organisms, grown in their suitable broth at 37 °C for 24 h for tested microorganisms (1 × 10^8 CFU/mL for bacteria and 1 × 10^6 CFU/mL of fungi), each 5 mL received 0.1 mL of the above inoculum and incubated at 37 °C for 24 h.
Structure (SMILES),MIC (Salmonella typhimurium) [µg/mL],IC50 [1] [µg/mL],Inhibition Zone Diameter (IZ) (mm) Candida albicans (Candida albicans),IC50 (SF-268 (CNS cancer)) [µg/mL],Inhibition Zone Diameter (IZ) (mm) Escherichia coli (Escherichia coli) [mm],IC50 [2] [µg/mL],Inhibition Zone Diameter (IZ) (mm) Staphylococcus aureus (Staphylococcus aureus) [mm],Inhibition Zone Diameter (IZ) (mm) Streptococcus faecalis (Streptococcus faecalis) [mm],IC50 (μg/mL) WI 38 [1] [µg/mL]
"NC1=NN(c2nc3ccc(Br)cc3nc2N2N=C(N)CC2=O)C(=O)C1 [Compound 16, 6-Bromo-2,3-bis(3-amino-1H-pyrazol-5(4H)-one)quinoxaline]",1.95,30 ± 2.36,R (R (IZ = 0 mm)),49.9 ± 8.64,10,12.8 ± 1.46,12,11,
"Brc1ccc2c(c1)n1nnnc1c1nnnn21 [Compound 11, 9-Bromoditetrazolo[1,5-a:5′,1′-c]quinoxaline]",7.81,> 100,R (R (IZ = 0 mm)),2.86 ± 4.92,15,1.18 ± 1.03,17,15,56.85 ± 4.05
"NNc1nc2ccc(Br)cc2nc1NN [Compound 9, 6-Bromo-2,3-dihydrazinylquinoxaline]",0.98,30.6 ± 6.21,11 mm,38.9 ± 2.63,29,37.1 ± 7.34,27,27,
"NNc1nc2cc(Br)ccc2nc1Cl [Compound 3, 6-Bromo-2-chloro-3-hydrazinylquinoxaline]",1.95,32.2 ± 6.54,R (R (IZ = 0 mm)),30.6 ± 2.39,13,36 ± 7.33,14,14,

# Continued by falling MIC (Salmonella typhimurium), values first:
MIC (Salmonella typhimurium) [µg/mL],Structure (SMILES),IC50 [1] [µg/mL],Inhibition Zone Diameter (IZ) (mm) Candida albicans (Candida albicans),IC50 (SF-268 (CNS cancer)) [µg/mL],Inhibition Zone Diameter (IZ) (mm) Escherichia coli (Escherichia coli) [mm],IC50 [2] [µg/mL],Inhibition Zone Diameter (IZ) (mm) Staphylococcus aureus (Staphylococcus aureus) [mm],Inhibition Zone Diameter (IZ) (mm) Streptococcus faecalis (Streptococcus faecalis) [mm],IC50 (μg/mL) WI 38 [1] [µg/mL]
31.2,"Brc1ccc2nc(N3CCCCC3)c3nnnn3c2c1 [Compound 5a, 8-Bromo-4-(piperidin-1-yl)tetrazolo[1,5-a]quinoxaline]",> 100,12 mm,0.02 ± 0.008,13,0.01 ± 0.001,11,9,
1.95,"Cc1cc(C)n(-c2nc3cc(Br)ccc3nc2NN)n1 [Compound 14, 6-Bromo-3-(3,5-dimethyl-1H-pyrazol-1-yl)-2-hydrazinyl quinoxaline]",58.7 ± 8.65,R (R (IZ = 0 mm)),42.1 ± 5.58,12,30.3 ± 3.86,12,12,
1.95,"Brc1ccc2nc(N3CCOCC3)c3nnnn3c2c1 [Compound 5b, 8-Bromo-4-(morpholin-4-yl)tetrazolo[1,5-a]quinoxaline]",> 100,9 mm,0.06 ± 0.008,11,0.02 ± 0.002,17,11,
0.98,"Clc1nc2ccc(Br)cc2n2nnnc12 [Compound 4, 8-Bromo-4-chlorotetrazolo[1,5-a]quinoxaline]",> 100,20 mm,0.06 ± 0.003,17,0.02 ± 0.006,26,18,
